Data reported in patent US10870660B2, “Nitrogen-containing condensed ring compounds having dopamine D3 antagonistic effect” (Shionogi & Co., Ltd., priority 2016, dated 2020).

Experiments:
[1] = molecular target: human recombinant dopamine D2 receptor (Homo sapiens (Human), UniProt P14416); assay: Test of binding inhibition for the human dopamine D2 receptor ([3H]-Metylspiperone SPA binding); details: [3H]-Metylspiperone 1.2 nM, Jump-In HEK cell membranes, read-out: hD2_Ki
Experimental: Cell membranes: Jump-In HEK cell membranes expressing human recombinant dopamine D2 receptor (2 μg/well)
Buffer solution: 50 mM Tris-HCl (35409-45, Nacalai Tesque) (pH 7.4) containing 120 mM NaCl (31320-05, Nacalai Tesque), 1 mM MgCl2.6H2O (20909-55, Nacalai Tesque), 5 mM KCl (28514-75, Nacalai Tesque) and 2 mM CaCl2 (067-31, Nacalai Chemical, Ltd)
Radioligand: (final concentration) 1.2 nM [^3H]-Metylspiperone ([^3H—N-methyl-]-Metylspiperone, NET-856, 83.8 Ci/mmol, PerkinElmer)
(§1) Non-specific ligand: (final concentration) 10 μM Butaclamol [(+)-Butaclamol Hydrochioride, D033, Sigma]
(§2) SPA beads: SPA beads [WGA PVT SPA Scintillatiion Beads, RPNQ0001 (500 mg), RPNQ0060 (2 g), PerkinElmer] (0.2 mg/well)
(§3) Incubation time and temperature: 120 min at 25° C.
(§4) Butaclamol or the compounds of the present invention were weighed and DMSO was added to make a 10 mM solution. This solution was diluted to each concentration.
[^3H]-Metylspiperone was weighed and the buffer solution was added to make a 3.6 nM solution.
(§5) SPA beads were weighed and stirred in water to make a 50 mg/mL solution. Using this solution, a mixed solution with the cell membranes was prepared.
225 nL of the solutions of the non-specific ligand or the compounds of the present invention at each concentration (in case of vehicle, final concentration 0.3% DMSO) were added in each well of a 384-well white/clear bottom microplate (3706, Corning). Jump-In HEK Cell membranes (final reaction amount: 2 μg protein/well), SPA beads (final reaction amount: 0.2 mg/well) and the buffer were mixed and the mixed solution was left still for more than or equal to 1 h at 4° C. Then, 50 μL of the mixture was added to each well of the plate. In addition, 25 μL of 3.6 nM [^3H]-Metylspiperone (final concentration: 1.2 nM) was added to each well. The plate was sealed by putting TopSeal-A 96/384 well (6050185, PerkinElmer) on the top of the plate, mixed using stirring deaerator (Welltornado, FK-62, Sakaki) and incubated for 120 min at 25° C. After incubation, the radioactivity of [^3H]-Metylspiperone which was binded to D2 receptor was determined by liquid scintillation counter (1450 Microbeta, PerkinElmer) in each well. Non-specific binding was calculated based on the radioactivity of [^3H]-Metylspiperone in the presence of 10 μM non-labeled Butaclamol. The total binding was calculated using the radioactivity of [^3H]-Metylspiperone in the absence of the compounds of the present invention (Vehicle). The Ki values were calculated from dose-response curves.
(§6) Binding activities of the compounds of the present invention were calculated from the following Binding Inhibition Rate (%): Inhibition Rate (%)=[1−(c−a)(b−a)]×100(%) • a: Average cpm of non-specific binding • b: Average cpm of total binding • c: Cpm in the presence of each test compound

[2] = molecular target: human recombinant dopamine D3 receptor (Homo sapiens (Human), UniProt P35462); assay: Test of binding inhibition for the human dopamine D3 receptor ([3H]-Metylspiperone SPA binding); details: [3H]-Metylspiperone 2 nM, Jump-In HEK cell membranes, read-out: hD3_Ki
Experimental: Cell membranes: Jump-In HEK cell membranes expressing human recombinant dopamine D3 receptor (4 μg/well)
as §1, §2, §3, §4
[^3H]-Metylspiperone was weighed and the buffer solution was added to make a 6 nM solution.
as §5
Jump-In HEK Cell membranes (final reaction amount: 4 μg/well), SPA beads (final reaction amount: 0.2 mg/well) and Tris-HCl buffer were mixed and the mixed solution was left still for more than 60 min at 4° C. Then, 50 μL of the mixture was added to each well of the plate. In addition, 25 μL of 6 nM [^3H]-Metylspiperone (final concentration: 2 nM) was added to each well. […] Non-specific binding was calculated based on the radioactivity of [^3H]-Metylspiperone in the presence of 10 μM non-labeled Butaclamol. The total binding was calculated based on the radioactivity of [^3H]-Metylspiperone in the absence of the compounds of the present invention (Vehicle). The Ki values were calculated from dose-response curves.
as §6

Chain of human recombinant dopamine D2 receptor (P14416 whole entry): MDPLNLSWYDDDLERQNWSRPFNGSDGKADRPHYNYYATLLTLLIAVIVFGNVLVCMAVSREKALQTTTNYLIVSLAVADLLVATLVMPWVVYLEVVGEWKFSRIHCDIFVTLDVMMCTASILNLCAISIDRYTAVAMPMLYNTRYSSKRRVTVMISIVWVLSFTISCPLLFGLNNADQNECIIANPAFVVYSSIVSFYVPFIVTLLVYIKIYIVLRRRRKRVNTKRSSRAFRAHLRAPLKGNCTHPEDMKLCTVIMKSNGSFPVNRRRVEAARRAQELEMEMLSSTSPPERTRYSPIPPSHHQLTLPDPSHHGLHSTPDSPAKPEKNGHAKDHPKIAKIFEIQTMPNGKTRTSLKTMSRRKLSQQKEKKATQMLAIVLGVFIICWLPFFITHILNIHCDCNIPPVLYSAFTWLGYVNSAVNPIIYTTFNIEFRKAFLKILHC
Chain of human recombinant dopamine D3 receptor (P35462 whole entry): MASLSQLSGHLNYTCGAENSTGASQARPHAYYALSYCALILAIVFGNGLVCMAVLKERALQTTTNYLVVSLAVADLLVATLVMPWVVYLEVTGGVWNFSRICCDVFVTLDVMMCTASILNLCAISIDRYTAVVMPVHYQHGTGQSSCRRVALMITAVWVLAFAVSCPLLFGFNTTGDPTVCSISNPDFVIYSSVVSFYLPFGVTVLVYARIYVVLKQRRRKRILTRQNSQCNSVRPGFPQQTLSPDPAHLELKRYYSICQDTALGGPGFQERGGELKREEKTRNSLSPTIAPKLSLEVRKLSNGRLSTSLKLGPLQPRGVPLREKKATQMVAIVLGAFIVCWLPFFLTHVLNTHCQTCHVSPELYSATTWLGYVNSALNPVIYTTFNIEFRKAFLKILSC

O=C(N[C@H]1CC[C@H](CCN2CC[C@H]3CN(c4ccccc4)C[C@@H]3C2)CC1)c1cccc2ncccc12 (racemic) [Compound I-033]
Ki [1]: 170 nM | Ki [2]: 3.6 nM

Cn1cc2c(C(=O)NC3CC4(CC(CCN5CCc6sc(OCC(C)(F)F)nc6C5)C4)C3)cccc2n1 (single isomer, unassigned) [III-624]
Ki [1]: 400 nM | Ki [2]: 0.092 nM

O=C(N[C@H]1CC[C@H](CCN2CCc3sc(C4=CCOCC4)nc3C2)CC1)c1cccc2ncccc12 [Compound I-001]
Ki [1]: > 1700 nM | Ki [2]: 11 nM

O=C(N[C@H]1CC[C@H](CCN2CCc3sc(Br)nc3C2)CC1)c1cccc2ncccc12 [Compound I-003]
Ki [1]: > 1900 nM | Ki [2]: 2.6 nM

O=C(N[C@H]1CC[C@H](CCN2CCc3sc(Cc4ccccc4)nc3C2)CC1)c1cccc2ncccc12 [Compound I-014]
Ki [1]: > 1700 nM | Ki [2]: 1.3 nM

O=C(N[C@H]1CC[C@H](CCN2CCc3nc(-c4ccccc4)sc3C2)CC1)c1cccc2ncccc12 [Compound I-018]
Ki [1]: > 1700 nM | Ki [2]: 12 nM

Cn1c(C#N)cc2c1CCN(CC[C@H]1CC[C@H](NC(=O)c3cccc4ncccc34)CC1)C2 [Compound I-052]
Ki [1]: 1100 nM | Ki [2]: 1 nM

Cn1c(-c2ccccc2)nc2c1CCN(CC[C@H]1CC[C@H](NC(=O)c3cccc4ncccc34)CC1)C2 [Compound I-070]
Ki [1]: 500 nM | Ki [2]: 1.4 nM

CC(F)(F)COc1nc2c(s1)CCN(CC[C@H]1CC[C@H](NC(=O)c3cccc4ncccc34)CC1)C2 [Compound I-071]
Ki [1]: 150 nM | Ki [2]: 0.13 nM

O=C(N[C@H]1CC[C@H](CCN2CCc3sc(N4CC5CC5C4)nc3C2)CC1)c1cccc2ncccc12 (stereo partly drawn) [Compound I-073]
Ki [1]: > 1700 nM | Ki [2]: 0.08 nM

CC1c2nc(OCC(F)F)sc2CCN1CC[C@H]1CC[C@H](NC(=O)c2cccc3ncccc23)CC1 (stereo partly drawn) [Compound I-101]
Ki [1]: > 1700 nM | Ki [2]: 8.1 nM

Cc1ncc(CC(=O)N[C@H]2CC[C@H](CCN3CCc4sc(OCC(F)F)nc4C3)CC2)s1 [Compound I-107]
Ki [1]: 370 nM | Ki [2]: 0.82 nM

Cn1cc(CC(=O)N[C@H]2CC[C@H](CCN3CCc4sc(OCC(F)F)nc4C3)CC2)cn1 [Compound I-108]
Ki [1]: 1400 nM | Ki [2]: 1.5 nM

O=C(N[C@H]1CC[C@H](CCN2CCc3cn(Cc4ccccc4)nc3C2)CC1)c1cccc2ncccc12 [Compound I-113]
Ki [1]: > 1700 nM | Ki [2]: 4.7 nM

O=C(N[C@H]1C[C@@H]2[C@@H](CCN3CCc4sc(OCC(F)F)nc4C3)[C@@H]2C1)c1cccc2ncccc12 [Compound I-124]
Ki [1]: 860 nM | Ki [2]: 0.91 nM

O=C(N[C@H]1CC[C@H](CCN2CCc3cnc(CC4CC4)nc3C2)CC1)c1cccc2ncccc12 [Compound I-133]
Ki [1]: > 1700 nM | Ki [2]: 7.9 nM

O=C(N[C@H]1CC[C@H](CCN2CCc3nc(OCC(F)F)ncc3C2)CC1)c1cccc2ncccc12 [Compound I-136]
Ki [1]: > 1800 nM | Ki [2]: 25 nM

O=C(N[C@H]1CC[C@H](CCN2CCc3ccc(OCC(F)F)nc3C2)CC1)c1cccc2ncccc12 [Compound I-139]
Ki [1]: > 1700 nM | Ki [2]: 0.69 nM

O=C(NCCCCN1CCc2sc(OCC(F)(F)F)nc2C1)c1ccc2ccccc2c1 [Compound I-140]
Ki [1]: 1200 nM | Ki [2]: 1.9 nM

O=C(N[C@H]1CC[C@H](CCN2CCc3sc(OCC(F)(F)F)nc3C2)OC1)c1cccc2ncccc12 [Compound I-142]
Ki [1]: 650 nM | Ki [2]: 0.72 nM

Cc1ncc(CC(=O)N[C@H]2CC[C@H](CCN3CCc4ccc(OCC(F)F)nc4CC3)CC2)s1 [II-005]
Ki [1]: 430 nM | Ki [2]: 0.085 nM

CC(=O)N[C@H]1CC[C@H](CCN2CCc3nc(OCC(C)(F)F)sc3CC2)CC1 [II-014]
Ki [1]: 230 nM | Ki [2]: 0.45 nM

O=C(CCC(F)(F)F)N[C@H]1CC[C@H](CCN2CCc3nc(CCC(F)(F)F)sc3CC2)CC1 [II-018]
Ki [1]: > 1800 nM | Ki [2]: 2.7 nM

Cc1nc(CC(=O)N[C@H]2CC[C@H](CCN3CCc4nc(CCC(F)(F)F)sc4CC3)CC2)no1 [II-019]
Ki [1]: > 1800 nM | Ki [2]: 2.3 nM

Cn1cc2c(C(=O)N[C@H]3CC[C@H](CCN4CCc5nc(OCC(F)F)sc5CC4)CC3)cccc2n1 [II-026]
Ki [1]: > 1700 nM | Ki [2]: 0.2 nM

Cc1ncc(CC(=O)N[C@H]2CC[C@H](CCN3CCc4nc(OCC(C)(F)F)sc4CC3)CC2)o1 [II-029]
Ki [1]: 1300 nM | Ki [2]: 0.12 nM

Cn1cc2c(C(=O)N[C@H]3CC[C@H](CCN4CCc5nc(OCC(F)(F)F)sc5CC4)CC3)cccc2n1 [II-046]
Ki [1]: 1200 nM | Ki [2]: 0.2 nM

CN1Cc2c(C(=O)N[C@H]3CC[C@H](CCN4CCc5nc(OCC(F)(F)F)sc5CC4)CC3)cccc2C1=O [II-047]
Ki [1]: 280 nM | Ki [2]: 0.022 nM

Cc1ncc(/C=C/C(=O)N[C@H]2CC[C@H](CCN3CCc4nc(OCC(F)(F)F)sc4CC3)CC2)cn1 [II-048]
Ki [1]: > 1700 nM | Ki [2]: 0.82 nM

CC(C)Oc1ccc2c(n1)CCN(CC[C@H]1CC[C@H](NC(=O)c3cccc4nn(C)cc34)CC1)CC2 [II-050]
Ki [1]: > 1800 nM | Ki [2]: 0.51 nM

Cc1ncc(CC(=O)N[C@H]2CC[C@H](CCN3CCc4nc(OCC(F)(F)F)sc4CC3)CC2)s1 [II-053]
Ki [1]: 730 nM

Cn1cc2c(C(=O)N[C@H]3CC[C@H](CCN4CCc5ccc(OCC(F)F)nc5CC4)CC3)cccc2n1 [II-057]
Ki [1]: > 1700 nM | Ki [2]: 0.014 nM

Cc1ncc(CC(=O)N[C@H]2CC[C@H](CCN3CCc4ccc(N5CC(F)(F)C5)nc4CC3)CC2)s1 [II-066]
Ki [1]: > 1900 nM | Ki [2]: 0.84 nM

Cc1ncc(CC(=O)N[C@H]2CC[C@](F)(CCN3CCc4nc(OCC(C)(F)F)sc4CC3)CC2)s1 [II-070]
Ki [1]: 820 nM | Ki [2]: 0.44 nM

Cn1cc2c(C(=O)N[C@H]3CC[C@H](CCN4CCc5cnc(CCC(F)(F)F)nc5CC4)CC3)cccc2n1 [II-072]
Ki [1]: > 1800 nM | Ki [2]: 0.48 nM

COc1cc(CC(=O)N[C@H]2CC[C@H](CCN3CCc4ccc(OCC(F)(F)F)nc4CC3)CC2)on1 [II-077]
Ki [1]: > 1800 nM | Ki [2]: 0.095 nM

Cc1cc(OCC(=O)N[C@H]2CC[C@H](CCN3CCc4ccc(OCC(F)(F)F)nc4CC3)CC2)no1 [II-078]
Ki [1]: > 1800 nM | Ki [2]: 0.075 nM

CCn1c(C(=O)N[C@H]2CC[C@H](CCN3CCc4ccc(OCC(F)(F)F)nc4CC3)CC2)cccc1=O [II-081]
Ki [1]: 230 nM | Ki [2]: 0.048 nM

Cc1ncc(CC(=O)N[C@H]2CC[C@H](CCN3CCc4nc(N(C)CC(F)(F)F)sc4CC3)CC2)s1 [II-084]
Ki [1]: 510 nM

Cc1nc(CC(=O)N[C@H]2CC[C@H](CCN3CCc4ccc(OCC(C)(F)F)nc4CC3)CC2)no1 [III-019]
Ki [2]: 0.14 nM

Cn1cc2c(C(=O)N[C@H]3CC[C@H](CCN4CCc5ccc(OCC(C)(F)F)nc5CC4)CC3)cccc2n1 [III-027]
Ki [1]: 330 nM

Cn1cc(CC(=O)N[C@H]2CC[C@H](CCN3CCc4nc(OCC(F)(F)F)sc4CC3)CC2)cn1 [III-037]
Ki [2]: 0.2 nM

Cc1ncccc1C(=O)N[C@H]1CC[C@H](CCN2CCc3nc(OCC(F)(F)F)sc3CC2)OC1 [III-182]
Ki [2]: 0.56 nM

COc1cc(CC(=O)N[C@H]2CC[C@H](CCN3CCc4nc(OCC(F)(F)F)sc4CC3)OC2)on1 [III-199]
Ki [2]: 0.2 nM

Cc1cc(CC(=O)N[C@H]2CC[C@H](CCN3CCc4nc(OCC(F)F)sc4CC3)CC2)no1 [III-282]
Ki [2]: 0.82 nM

COc1cc(CC(=O)N[C@H]2CC[C@H](CCN3CCc4sc(N5CC(F)(F)C5)nc4C3)CC2)on1 [III-578]
Ki [1]: > 1700 nM

Cc1cc(OCC(=O)N[C@H]2CC[C@H](CCN3CCc4sc(N5CC(F)(F)C5)nc4C3)CC2)no1 [III-581]
Ki [1]: 810 nM
